Results from publication PMC4632759, “Studies on [5,6]-Fused Bicyclic Scaffolds Derivatives as Potent Dual B-Raf^V600E/KDR Inhibitors Using Docking and 3D-QSAR Approaches” (International Journal of Molecular Sciences, 2015).
Read-outs that look alike come from different tables or passages of the source.

What was measured:
B-Raf^V600E [1] = target: T1, B-Raf^V600E (Homo sapiens, UniProt P15056, V600E); experiment: B-Raf^V600E kinase inhibition (literature data set); type: biochemical; conditions: −log IC50 of literature IC50; for IC50: read-out: B-Raf Actual pIC50 (converted)
T1 sequence (P15056 whole entry V600E): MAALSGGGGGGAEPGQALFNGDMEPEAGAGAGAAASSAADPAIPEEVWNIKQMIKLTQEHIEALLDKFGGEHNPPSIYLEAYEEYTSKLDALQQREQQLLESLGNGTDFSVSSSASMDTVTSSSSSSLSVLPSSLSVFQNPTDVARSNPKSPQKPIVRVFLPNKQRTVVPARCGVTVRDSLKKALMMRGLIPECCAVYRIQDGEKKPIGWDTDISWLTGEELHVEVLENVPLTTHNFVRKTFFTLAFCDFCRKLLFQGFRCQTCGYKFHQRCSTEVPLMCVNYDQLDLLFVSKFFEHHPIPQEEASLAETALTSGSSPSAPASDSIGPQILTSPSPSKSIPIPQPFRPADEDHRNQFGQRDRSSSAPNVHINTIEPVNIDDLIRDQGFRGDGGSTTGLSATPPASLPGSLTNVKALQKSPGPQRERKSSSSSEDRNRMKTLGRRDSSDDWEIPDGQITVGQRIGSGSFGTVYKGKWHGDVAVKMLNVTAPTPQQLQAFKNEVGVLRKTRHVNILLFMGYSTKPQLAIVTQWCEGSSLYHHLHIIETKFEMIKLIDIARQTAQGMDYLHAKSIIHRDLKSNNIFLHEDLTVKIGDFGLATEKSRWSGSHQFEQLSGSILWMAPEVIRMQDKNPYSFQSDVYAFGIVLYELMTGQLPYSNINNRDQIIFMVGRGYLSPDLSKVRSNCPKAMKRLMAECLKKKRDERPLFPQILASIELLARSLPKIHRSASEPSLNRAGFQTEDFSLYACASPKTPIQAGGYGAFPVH
Method: The IC50 values of all compounds for B-Raf and KDR inhibition were converted to the −log IC50 (pIC50) as dependent variables in the 3D-QSAR analysis. The 3D structures for all 40 compounds were built and minimized, and then Gasteiger-Hückel charge was calculated. All works were all done in SYBYL 6.9 (Tripos, Inc.: St. Louis, MO, USA, 2002).

B-Raf^V600E [2] = target: T1, B-Raf^V600E; design: method as in PMID 22376051, PMID 22763369, PMID 22883026, PMID 23906342; conditions: literature values used as 3D-QSAR data set; read-out: Kinase IC50 B-Raf^V600E; cited from earlier work
VEGFR2 [3] = target: T2, VEGFR2 (Homo sapiens, UniProt P35968); design: method as in PMID 22376051, PMID 22763369, PMID 22883026, PMID 23906342; conditions: literature values used as 3D-QSAR data set; read-out: Kinase IC50 VEGFR2; cited from earlier work
T2 sequence (P35968 806-1171): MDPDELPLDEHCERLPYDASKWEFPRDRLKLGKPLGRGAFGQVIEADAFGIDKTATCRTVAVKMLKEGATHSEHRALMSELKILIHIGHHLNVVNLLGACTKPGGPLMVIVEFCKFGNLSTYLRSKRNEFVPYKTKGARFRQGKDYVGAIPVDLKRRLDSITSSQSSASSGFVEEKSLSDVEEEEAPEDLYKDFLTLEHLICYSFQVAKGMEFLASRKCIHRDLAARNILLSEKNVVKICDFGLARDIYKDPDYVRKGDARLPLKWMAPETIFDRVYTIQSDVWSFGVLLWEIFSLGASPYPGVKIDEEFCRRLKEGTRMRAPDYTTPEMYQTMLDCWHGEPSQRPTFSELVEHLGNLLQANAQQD

VEGFR2 [4] = target: T2, VEGFR2; experiment: VEGFR2 (KDR) kinase inhibition (literature data set); type: biochemical
Method: The IC50 values of all compounds for B-Raf and KDR inhibition were converted to the −log IC50 (pIC50) as dependent variables in the 3D-QSAR analysis. The 3D structures for all 40 compounds were built and minimized, and then Gasteiger-Hückel charge was calculated.

B-Raf^V600E [5] = target: T1, B-Raf^V600E; experiment: B-Raf^V600E inhibitory activity of designed new compounds (preliminary pharmacological evaluation); type: biochemical; conditions: for IC50: preliminary biological tests
From the text: (§1) The designed molecules were synthesized and the preliminary pharmacological evaluation would be used to verify the biological activity and our design strategy.

KDR = KDR (Homo sapiens, UniProt P35968); experiment: KDR inhibitory activity of designed new compounds (preliminary pharmacological evaluation); type: biochemical; conditions: for IC50: preliminary biological tests
KDR, sequence (P35968 20-1356): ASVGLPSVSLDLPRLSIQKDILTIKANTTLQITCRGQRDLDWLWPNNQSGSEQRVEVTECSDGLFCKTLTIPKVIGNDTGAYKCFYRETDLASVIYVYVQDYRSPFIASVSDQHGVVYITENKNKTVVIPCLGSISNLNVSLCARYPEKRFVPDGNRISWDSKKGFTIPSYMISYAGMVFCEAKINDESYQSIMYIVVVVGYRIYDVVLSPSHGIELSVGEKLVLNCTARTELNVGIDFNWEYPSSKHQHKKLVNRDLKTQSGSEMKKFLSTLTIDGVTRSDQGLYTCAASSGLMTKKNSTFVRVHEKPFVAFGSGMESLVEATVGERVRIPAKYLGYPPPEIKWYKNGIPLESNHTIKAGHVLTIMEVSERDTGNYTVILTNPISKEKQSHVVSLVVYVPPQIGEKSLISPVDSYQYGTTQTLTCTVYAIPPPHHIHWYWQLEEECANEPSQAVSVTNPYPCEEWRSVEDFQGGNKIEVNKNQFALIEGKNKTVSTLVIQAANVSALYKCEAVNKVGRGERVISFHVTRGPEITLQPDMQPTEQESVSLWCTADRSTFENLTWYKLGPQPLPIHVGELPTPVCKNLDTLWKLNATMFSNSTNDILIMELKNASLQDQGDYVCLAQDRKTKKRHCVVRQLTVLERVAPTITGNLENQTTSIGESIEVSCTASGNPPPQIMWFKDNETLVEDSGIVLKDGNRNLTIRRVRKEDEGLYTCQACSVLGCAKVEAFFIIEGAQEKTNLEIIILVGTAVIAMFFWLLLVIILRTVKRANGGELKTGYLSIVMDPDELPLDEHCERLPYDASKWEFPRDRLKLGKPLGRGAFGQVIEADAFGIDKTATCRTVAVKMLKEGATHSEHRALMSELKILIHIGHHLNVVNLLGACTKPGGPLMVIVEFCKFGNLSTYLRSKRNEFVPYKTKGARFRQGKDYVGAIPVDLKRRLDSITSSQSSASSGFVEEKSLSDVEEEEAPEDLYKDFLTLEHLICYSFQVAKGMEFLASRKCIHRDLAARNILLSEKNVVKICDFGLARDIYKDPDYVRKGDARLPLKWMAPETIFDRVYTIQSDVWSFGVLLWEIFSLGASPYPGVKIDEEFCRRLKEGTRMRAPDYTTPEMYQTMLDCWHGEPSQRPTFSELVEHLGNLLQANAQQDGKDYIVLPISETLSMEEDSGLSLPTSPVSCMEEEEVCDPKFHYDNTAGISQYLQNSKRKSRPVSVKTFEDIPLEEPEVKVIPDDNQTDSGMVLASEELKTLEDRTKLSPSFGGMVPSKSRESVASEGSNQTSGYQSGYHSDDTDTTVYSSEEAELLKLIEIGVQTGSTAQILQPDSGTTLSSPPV
From the text: as §1

| Structure (SMILES) | IC50 (B-Raf^V600E [1]) [nM] | IC50 (B-Raf^V600E [2]) [nM] | IC50 (VEGFR2 [3]) [nM] | IC50 (VEGFR2 [4]) [nM] | B-Raf Actual pIC50 (B-Raf^V600E [1]) | KDR Actual pIC50 (VEGFR2 [4]; −log IC50 of literature IC50) | also measured |
| --- | --- | --- | --- | --- | --- | --- | --- |
| O=C(Nc1cccc(Oc2ccc3nc(NC(=O)C4CCOCC4)cn3n2)c1)c1cccc(C(F)(F)F)c1 [Compound 1-1] | 42.7 | 43 | – | – | – | – | – |
| CC(=O)Nc1cn2nc(Oc3cccc(NC(=O)c4cccc(C(F)(F)F)c4)c3)ccc2n1 [Compound 1-2] | 4.07 | 4.1 | 1.1 | 1.1 | – | – | – |
| CCC(=O)Nc1cn2nc(Oc3cccc(NC(=O)c4cccc(C(F)(F)F)c4)c3)ccc2n1 [Compound 1-3] | 6.92 | 6.9 | 1.7 | 1.7 | – | – | – |
| O=C(Nc1cccc(Oc2ccc3nc(NC(=O)C4CC4)cn3n2)c1)c1cccc(C(F)(F)F)c1 [Compound 1-4] | 7.59 | 7.6 | 1.9 | 1.91 | – | – | – |
| O=C(Nc1cccc(Oc2ccc3nc(NC(=O)C4CCC4)cn3n2)c1)c1cccc(C(F)(F)F)c1 [Compound 1-5] | 28.2 | 28 | 4.8 | 4.79 | – | – | – |
| O=C(Nc1cccc(Oc2ccc3nc(NC(=O)C4CCCC4)cn3n2)c1)c1cccc(C(F)(F)F)c1 [Compound 1-6] | 43.7 | 44 | 9.3 | 9.33 | – | – | – |
| O=C(Nc1cccc(Oc2ccc3nc(NC(=O)C4CC4)cn3n2)c1)c1ccc(C(F)(F)F)cc1 [Compound 1-7] | 81.3 | 81 | 1.9 | 1.91 | – | – | – |
| O=C(Nc1cccc(Oc2ccc3nc(NC(=O)C4CC4)cn3n2)c1)c1ccccc1C(F)(F)F [Compound 1-8] | 3720 | 3700 | 1.4 | 1.41 | – | – | – |
| COc1cccc(C(=O)Nc2cccc(Oc3ccc4nc(NC(=O)C5CC5)cn4n3)c2)c1 [Compound 1-9] | 18.2 | 18 | 0.31 | 0.309 | – | – | – |
| CC(C)(C)Oc1cccc(C(=O)Nc2cccc(Oc3ccc4nc(NC(=O)C5CC5)cn4n3)c2)c1 [Compound 1-10] | 15.1 | 15 | 1.8 | 1.82 | – | – | – |
| CC(C)(O)c1cccc(C(=O)Nc2cccc(Oc3ccc4nc(NC(=O)C5CC5)cn4n3)c2)c1 [Compound 1-11] | 10 | – | 0.82 | 0.813 | – | – | – |
| CC(C)(C#N)c1cccc(C(=O)Nc2cccc(Oc3ccc4nc(NC(=O)C5CC5)cn4n3)c2)c1 [Compound 1-12] | 14.1 | 14 | 1.5 | 1.51 | – | – | – |
| CC(C)(C#N)c1cccc(C(=O)Nc2cccc(Oc3ccc4nc(NC(=O)C5CC5)cn4c3)c2)c1 [Compound 2-1] | 49 | 49 | 1.8 | 1.82 | – | – | – |
| CC(C)(C#N)c1cccc(C(=O)Nc2cccc(Oc3ccc4nc(NC(=O)C5CC5)[nH]c4c3)c2)c1 [Compound 2-2] | 40.7 | 41 | 8.1 | 8.13 | – | – | – |
| CC(C)(C#N)c1cccc(C(=O)Nc2cccc(Oc3ccc4nc(NC(=O)C5CC5)[nH]c4n3)c2)c1 [Compound 2-3] | 17 | 17 | 3.1 | 3.09 | – | – | – |
| Cn1c(NC(=O)C2CC2)nc2ccc(Oc3cccc(NC(=O)c4cccc(C(C)(C)C#N)c4)c3)nc21 [Compound 2-4] | 200 | 200 | 2.4 | 2.4 | – | – | – |
| CC(C)(C#N)c1cccc(C(=O)Nc2cccc(Oc3ccc4nc(NC(=O)C5CC5)sc4c3)c2)c1 [Compound 2-5] | 25.1 | 25 | 14 | 14.1 | – | – | – |
| N#CC1(c2cccc(C(=O)Nc3cccc(Oc4ccc5nc(NC(=O)C6CC6)sc5n4)c3)c2)CC1 [Compound 3-1] | 3.02 | 3 | 2.2 | 2.19 | – | – | – |
| N#CC1(c2cccc(C(=O)Nc3cccc(Oc4ccc5nc(NC(=O)C6CC6)sc5n4)c3)c2Cl)CC1 [Compound 3-2] | 8.91 | 9 | 4 | 3.98 | – | – | – |
| N#CC1(c2cccc(C(=O)Nc3cc(Oc4ccc5nc(NC(=O)C6CC6)sc5n4)ccc3F)c2Cl)CC1 [Compound 3-3] | 7.08 | – | – | – | – | – | IC50 (VEGFR2 [4]; −log IC50 of literature IC50, read-out: KDR Actual pIC50 (converted)): 2.19 nM |
| N#CC1(c2cccc(C(=O)Nc3cc(Oc4ccc5nc(NC(=O)C6CC6)sc5n4)ccc3Cl)c2Cl)CC1 [Compound 3-4] | 42.7 | 43 | 7.5 | 7.59 | – | – | – |
| CC(=O)Nc1nc2ccc(Oc3ccc(F)c(NC(=O)c4cccc(C5(C#N)CC5)c4Cl)c3)nc2s1 [Compound 3-5] | 6.31 | 6.3 | 3.4 | 3.39 | – | – | – |

| Structure (SMILES) | IC50 (B-Raf^V600E [1]) [nM] | IC50 (B-Raf^V600E [2]) [nM] | IC50 (VEGFR2 [3]) [nM] | IC50 (VEGFR2 [4]) [nM] | B-Raf Actual pIC50 (B-Raf^V600E [1]) | KDR Actual pIC50 (VEGFR2 [4]; −log IC50 of literature IC50) | also measured |
| --- | --- | --- | --- | --- | --- | --- | --- |
| CC(=O)Nc1nc2ccc(N(C)c3ccc(F)c(NC(=O)c4cccc(OC(C)(C)C#N)c4)c3)nc2s1 [Compound 3-6] | – | – | – | – | 7.64 | 8.00 | – |
| CC(=O)Nc1nc2ccc(N(C)c3ccc(F)c(NC(=O)c4cccc(OC(C)(C)C#N)c4Cl)c3)nc2s1 [Compound 3-7] | – | – | – | – | 7.35 | 7.85 | – |
| CN(c1ccc(F)c(NC(=O)c2cccc(OC(C)(C)C#N)c2Cl)c1)c1ccc2nc(NC(=O)C3CC3)sc2n1 [Compound 3-8] | – | – | – | – | – | 8.12 | – |
| CC(=O)Nc1nc2cnc(Oc3cc(NC(=O)c4cccc(CCC#N)c4)ccc3C)nc2s1 [Compound 4-1] | 51.3 | 51 | 410 | 407 | – | – | – |
| CC(=O)Nc1nc2cnc(Oc3cc(NC(=O)c4cccc(CC(C)(C)C#N)c4)ccc3C)nc2s1 [Compound 4-2] | 100 | – | 300 | 302 | – | – | – |
| CC(=O)Nc1nc2cnc(Oc3cc(NC(=O)c4cccc(OC(C)(C)C#N)c4)ccc3C)nc2s1 [Compound 4-3] | 72.4 | 73 | 510 | 513 | – | – | – |
| CC(C)(C#N)c1cccc(C(=O)Nc2cccc(Oc3ccc4nc(NC(=O)C5CC5)sc4c3[N+](=O)[O-])c2)c1 [Compound 5-1] | – | – | – | – | 7.60 | 7.15 | – |
| CC(C)(C#N)c1cccc(C(=O)Nc2cccc(Oc3ccc4nc(NC(=O)C5CC5)sc4c3C#N)c2)c1 [Compound 5-2] | – | – | – | – | 7.89 | 7.12 | – |
| COC(=O)c1c(Oc2cccc(NC(=O)c3cccc(C(C)(C)C#N)c3)c2)ccc2nc(NC(=O)C3CC3)sc12 [Compound 5-3] | – | – | – | – | 7.92 | 7.48 | – |
| CC(C)(C#N)c1cccc(C(=O)Nc2cccc(Oc3ccc4nc(NC(=O)C5CC5)sc4c3CO)c2)c1 [Compound 5-4] | – | – | – | – | 7.62 | 8.13 | – |
| N#Cc1c(Oc2cccc(NC(=O)Nc3ccccc3C(F)(F)F)c2)ccc2nc(NC(=O)C3CC3)sc12 [Compound 6-1] | – | – | – | – | 7.72 | 6.92 | – |
| N#Cc1c(Oc2cccc(NC(=O)Nc3ccc(C(F)(F)F)cc3)c2)ccc2nc(NC(=O)C3CC3)sc12 [Compound 6-2] | – | – | – | – | 7.74 | 6.48 | – |
| N#Cc1c(Oc2ccc(F)c(NC(=O)Nc3cccc(C(F)(F)F)c3)c2)ccc2nc(NC(=O)C3CC3)sc12 [Compound 6-3] | – | – | – | – | 7.31 | 6.14 | – |
| N#Cc1c(Oc2ccc(F)c(NC(=O)Nc3ccc(C(F)(F)F)cc3)c2)ccc2nc(NC(=O)C3CC3)sc12 [Compound 6-4] | – | > 26 | – | – | 7.59 | 6.18 | – |
| N#Cc1c(Oc2cccc(NC(=O)Cc3ccccc3C(F)(F)F)c2)ccc2nc(NC(=O)C3CC3)sc12 [Compound 6-5] | – | – | – | – | 7.85 | 7.00 | – |
| N#Cc1c(Oc2cccc(NC(=O)Cc3cccc(C(F)(F)F)c3)c2)ccc2nc(NC(=O)C3CC3)sc12 [Compound 6-6] | – | – | – | – | 8.89 | 6.82 | – |
| N#Cc1c(Oc2cccc(NC(=O)Cc3ccc(C(F)(F)F)cc3)c2)ccc2nc(NC(=O)C3CC3)sc12 [Compound 6-7] | – | – | – | – | 8.02 | 6.72 | – |
| N#Cc1c(Oc2ccc(F)c(NC(=O)Cc3cccc(C(F)(F)F)c3)c2)ccc2nc(NC(=O)C3CC3)sc12 [Compound 6-8] | – | – | – | – | 8.62 | 6.80 | – |
| CNC(=O)c1nc2ccc(C(=O)c3cccc(NC(=O)c4ccc(C)cc4)c3)cc2[nH]1 [Compound D1] | – | – | – | – | – | – | Actual pIC50 B-Raf (B-Raf^V600E [5]): 6.55; IC50 (B-Raf^V600E [5]): 280 nM; Actual pIC50 KDR (KDR): 6.00; IC50 (KDR): 990 nM |
| CNC(=O)c1nc2ccc(C(=O)c3cccc(NC(=O)c4cccc(Cl)c4)c3)cc2[nH]1 [Compound D2] | – | – | – | – | – | – | Actual pIC50 B-Raf (B-Raf^V600E [5]): 6.38; IC50 (B-Raf^V600E [5]): 420 nM; Actual pIC50 KDR (KDR): 6.68; IC50 (KDR): 210 nM |
| CNC(=O)c1nc2ccc(C(=O)c3cccc(NC(=O)c4ccc(Cl)cc4)c3)cc2[nH]1 [Compound D3] | – | – | – | – | – | – | IC50 (B-Raf^V600E [5]): > 5000 nM; Actual pIC50 KDR (KDR): 6.02; IC50 (KDR): 950 nM |
